Assay [1] concerns the target T1, Prostaglandin G/H synthase 2 (Homo sapiens, UniProt P35354).
T1 sequence (P35354 whole entry): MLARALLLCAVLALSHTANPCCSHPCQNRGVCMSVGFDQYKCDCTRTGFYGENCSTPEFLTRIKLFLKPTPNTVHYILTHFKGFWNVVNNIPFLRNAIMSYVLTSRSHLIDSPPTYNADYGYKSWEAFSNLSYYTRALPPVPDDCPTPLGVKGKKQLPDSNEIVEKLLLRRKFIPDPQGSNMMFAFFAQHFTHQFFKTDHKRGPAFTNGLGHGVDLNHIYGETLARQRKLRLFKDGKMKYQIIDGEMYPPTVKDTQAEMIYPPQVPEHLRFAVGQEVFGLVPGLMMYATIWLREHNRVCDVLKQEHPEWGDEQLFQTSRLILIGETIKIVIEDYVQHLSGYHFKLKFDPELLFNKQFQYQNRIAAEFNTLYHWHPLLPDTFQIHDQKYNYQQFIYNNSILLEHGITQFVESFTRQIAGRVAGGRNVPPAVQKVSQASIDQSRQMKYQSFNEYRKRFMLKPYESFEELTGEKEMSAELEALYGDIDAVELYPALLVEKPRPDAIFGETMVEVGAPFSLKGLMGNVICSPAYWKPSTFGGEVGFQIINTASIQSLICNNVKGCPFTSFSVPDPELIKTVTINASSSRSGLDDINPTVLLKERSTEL
As to the kind of experiment: In vitro inhibitory activity against Prostaglandin G/H synthase 2 (COX-2) in human.

In assay [2] the target is T2, Prostaglandin G/H synthase 1 (Ovis aries, UniProt P05979).
T2 sequence (P05979 whole entry): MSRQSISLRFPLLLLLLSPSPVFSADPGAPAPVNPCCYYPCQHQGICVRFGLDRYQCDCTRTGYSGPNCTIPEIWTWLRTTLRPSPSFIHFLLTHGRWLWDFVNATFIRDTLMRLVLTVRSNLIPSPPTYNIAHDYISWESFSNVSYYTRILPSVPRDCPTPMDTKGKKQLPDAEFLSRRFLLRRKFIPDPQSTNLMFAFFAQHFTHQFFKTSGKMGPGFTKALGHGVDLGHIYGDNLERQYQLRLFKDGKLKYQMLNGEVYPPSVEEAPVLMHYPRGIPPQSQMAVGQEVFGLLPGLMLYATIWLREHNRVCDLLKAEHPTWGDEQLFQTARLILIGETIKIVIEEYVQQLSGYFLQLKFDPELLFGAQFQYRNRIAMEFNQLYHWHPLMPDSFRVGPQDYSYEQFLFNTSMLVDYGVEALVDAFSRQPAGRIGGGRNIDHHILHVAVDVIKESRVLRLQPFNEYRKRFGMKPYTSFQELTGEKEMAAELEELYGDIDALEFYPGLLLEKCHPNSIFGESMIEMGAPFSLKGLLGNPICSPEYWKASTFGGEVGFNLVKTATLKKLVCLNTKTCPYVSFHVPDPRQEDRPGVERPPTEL
As to the kind of experiment: In vitro inhibitory activity against Prostaglandin G/H synthase 1 in sheep.

For the next assay, the species on record is Ovis aries. Description: Selectivity ratio of COX-1 to that of COX-2.

This passage reports IC50 and Selectivity results from ChEMBL document CHEMBL1131913 (Bioorg Med Chem Lett, 1999).

As usually defined, the IC50 is the concentration needed to halve the response being measured. A high value points to weaker potency. As for `CC(C)c1cccc(-c2ccc(C(C)C(=O)O)cc2F)c1` (stereo not drawn), the half-maximal inhibitory concentration (IC50) in assay [1] was more than 100000 nM; in assay [2], 15000 nM. In the assay listed under Ovis aries, the Selectivity is less than 0.15.

For the compound `C/C=C/c1cncc(-c2ccc(C(C)C(=O)O)cc2)c1` (stereo not drawn), the IC50 was 670 nM in assay [1] and 15500 nM in assay [2]. In addition, the Selectivity in the assay listed under Ovis aries amounted to 23.

Take `C=Cc1cncc(-c2ccc(C(C)C(=O)O)cc2)c1` (stereo not drawn): the IC50 in assay [1] and in assay [2] was 190 nM each time. The Selectivity in the assay filed under Ovis aries stood at 1.

On to `CCc1cccc(-c2ccc(C(C)C(=O)O)cc2)c1` (stereo not drawn), for which the results for the half-inhibitory concentration (IC50) in assay [1] and in assay [2] were 2400 nM and 5800 nM, respectively. Also, the Selectivity in the assay filed under Ovis aries turned out to be 2.4.

Take `CCSc1cccc(-c2ccc(C(C)C(=O)O)cc2)c1` (stereo not drawn): the results for the half-inhibitory concentration (IC50) in assay [1] and in assay [2] were 330 nM and 3100 nM, respectively. Also, the Selectivity in the assay listed under Ovis aries amounted to 9.4.

For the compound `Cc1cc(C)cc(-c2ccc(C(C)C(=O)O)cc2F)c1` (stereo not drawn), the IC50 in assay [1] came out at 19000 nM; in assay [2], 15000 nM. For the same compound, the Selectivity in the assay filed under Ovis aries came out at 0.79.

In the case of `CCOc1cccc(-c2ccc(C(C)C(=O)O)cc2F)c1` (stereo not drawn), the IC50 in assay [1] and in assay [2] was 14 nM in each case. For the same compound, the Selectivity in the assay listed under Ovis aries was determined as 1.

As to `CCOc1cc(OCC)cc(-c2ccc(C(C)C(=O)O)cc2)c1` (stereo not drawn), the IC50 in assay [1] is 320 nM; in assay [2] it was 25000 nM. The Selectivity in the assay listed under Ovis aries came out at 78.

Regarding `COc1cc(OC)cc(-c2ccc(C(C)C(=O)O)cc2F)c1` (stereo not drawn), the concentration for half-maximal inhibition (IC50) in assay [1] was found to be 70 nM; in assay [2] it was 63 nM. The Selectivity in the assay listed under Ovis aries was 0.9.

For `C=CCc1cccc(-c2ccc(C(C)C(=O)O)cc2)c1` (stereo not drawn), the IC50 in assay [1] amounted to 150 nM; in assay [2] it was 1400 nM. In addition, the Selectivity in the assay filed under Ovis aries worked out at 9.3.

Consider `CC(C(=O)O)c1ccc(-c2ccccc2)cc1` (stereo not drawn), for which half-maximal inhibition in assay [1] (IC50) was put at 21 nM.

As to `Cc1cc2cc(-c3ccc(C(C)C(=O)O)cc3)ccc2[nH]1` (stereo not drawn), the IC50 in assay [1] stood at 230 nM; in assay [2], 10500 nM. The Selectivity in the assay filed under Ovis aries turned out to be 45.

For the compound `C=Cc1cccc(-c2ccc(C(C)C(=O)O)cc2)c1` (stereo not drawn), the half-inhibitory concentration (IC50) in assay [1] came out at 730 nM; in assay [2], 1300 nM. In addition, the Selectivity in the assay listed under Ovis aries was 1.8.

`CC(C(=O)O)c1ccc(-c2ccc3[nH]ccc3c2)cc1` (stereo not drawn): the IC50 came out at 190 nM in assay [1] and 100 nM in assay [2]. Further, the Selectivity in the assay filed under Ovis aries came out at 0.53.

Turning to `CCOc1cc(OCC)cc(-c2ccc(C(C)C(=O)O)cc2F)c1` (stereo not drawn), the IC50 in assay [1] turned out to be 100 nM; in assay [2] it was 7700 nM. Besides, the Selectivity in the assay listed under Ovis aries is 77.
